Experimental data as given in US20030143165A1, “NSAID-containing topical formulations that demonstrate chemopreventive activity” (priority 2002, published 2003).

Columns and labels:
[1] = tested on: SKH-1 mice (hairless mice); assay: UV light-induced skin carcinogenesis (papillomas/tumours) in hairless mice, topical treatment for 28 weeks; format: in vivo; details: for animals that had developed at least one tumour at the end of the study: week 28
Protocol: In a first laboratory experiment performed, female SKH-1 mice (hairless mice) were purchased from the Animal Resource Service of Murdoch University, Western Australia, at approximately 3-4 weeks of age. Upon arrival at the Applicants' laboratory, the mice were housed in climate-controlled quarters (22±1° C. at 50% humidity) with a 12-hour light/dark cycle in yellow fluorescent lighting. All animals were allowed free access to rodent diet and water. The experimental protocol and all procedures were approved by CSIRO Health Sciences and Nutrition Animal Experimental Ethics Committee and followed the Australian Code of Practice for the care and use of animals for scientific purposes. The animals were observed daily during the period of UV light exposure. Individual body weights were determined twice weekly throughout the whole study period of 28 weeks.
Racemic flurbiprofen (“RS-FB”), used as the chemopreventive NSAID in this experiment, was purchased from Sigma Chemical Company (Sydney, Australia). Several topical formulation solutions were prepared by dissolving RS-FB in 70% ethanol (in water) as the carrier medium to achieve final RS-FB concentrations of 0.5, 1.0, 2.0 and 3.0% w/v. The drug solutions were prepared every two weeks throughout the whole study period.
The SKH-1 mice were divided into 5 treatment groups of 30 animals each. […] Within each treatment group, the animals were further divided into 2 subgroups of 15 animals. One subgroup was treated with vehicle or RS-FB solution one hour before the UV light exposure. The other subgroup was exposed to the UV light one hour before the application of vehicle or the allocated RS-FB solution. The solutions were applied topically to the dorsal area of the animals, in a volume of approximately 50-125 μl per application, using cotton tips.
Simulated solar irradiation was provided by an array of 6 UV-A tubes (Sylvania F40BL) symmetrically housed around a single UV-B tube (Philips FL 40SE) in a custom-built unit. As the skin of the animals progressively thickened, the time of exposure to reach 1 minimal erythematous dose (MED) was increased from 7 minutes per day to 10 minutes per day, 5 days a week. The integrated UV-B irradiance (280-320 nm) was 2.4×10^−4 W/cm^2, and the UV-A (320-400 nm) was 1.8×10^−3 W/cm^2 as measured with a model IL 1700 spectro-radiometer (International Light, Newburyport, Mass.). During treatment, the mice in each group were placed in separate open plastic cages in the UV housing unit. […] Treatment in this manner was continued for 28 weeks.
The development of skin cancer was assessed as the visible appearance of papillomas, which subsequently developed, in a subset of cases, to tumours. Weekly papilloma and tumour counts were performed after the appearance of the first papilloma and were continued until the termination of the experiment (week 28). The diameters of papillomas and tumours were measured and their locations noted. Data was recorded representing the number of (a) papillomas, (b) tumours and (c) papillomas plus tumours per animal. While the natural progression is from papilloma to tumour, it will be appreciated by those skilled in the art that, in some cases, the distinction between a papilloma and a tumour could not be made unequivocally. The data was analysed taking this into account. The appearance of the skin lesions was expressed progressively as incidence (percentage of mice bearing at least one papilloma/tumour) and yield (average number of papillomas/tumours per mouse) as well as burden (area of skin affected at the end of study).
Analysis of variance (ANOVA) was used to determine whether RS-FB administration caused a statistically significant change in the appearance and yield of papilloma/tumours in comparison with the control (vehicle group). Comparisons between groups was performed using the Scheffe method. Significance was concluded when P<0.05.

[2] = tested on: non-pigmented human skin cancer cell line MM96L; assay: in vitro proliferation (MTS colorimetric assay) and apoptosis of human skin cancer cell line; format: cell-based; details: for effect on proliferation rate (FIG. 4): 24 hours exposure, MTS assay; for apoptosis: DNA fragmentation, acridine orange staining, flow cytometry
Source text: FIG. 4 is a chart that graphically presents laboratory experiment test data regarding the relative effect of racemic flurbiprofen to its individual enantiomers, R-flurbiprofen flurbiprofen (“R-FB”) and S-flurbipofen (“S-FB”), on the in vitro proliferation of a cancerous human skin cell line. For the underlying experiment, the non-pigmented human skin cancer cell line M[…] was studied in vitro utilizing the MTS colorimetric assay to assess cell proliferation. DNA fragmentation assays, acridine orange staining and flow cytometry were also utilized to assess apoptosis and cell cycle effects. […] An important finding was that there was no difference between the enantiomers of flurbiprofen in their anti-proliferative potency, despite the fact that only the S-isomer was capable of reducing COX activity.

cyclooxygenase (COX) = details: cited from earlier work
human skin cells = assay: anti-proliferative effects of other NSAIDs on human skin cells; format: cell-based; details: range depends on duration of exposure, read-out: IC50 (concentration required to inhibit cell proliferation by 50%)
Source text: FIG. 4 is a chart that graphically presents laboratory experiment test data regarding the relative effect of racemic flurbiprofen to its individual enantiomers, R-flurbiprofen flurbiprofen (“R-FB”) and S-flurbipofen (“S-FB”), on the in vitro proliferation of a cancerous human skin cell line. For the underlying experiment, the non-pigmented human skin cancer cell line MM96L was studied in vitro utilizing the MTS colorimetric assay to assess cell proliferation. DNA fragmentation assays, acridine orange staining and flow cytometry were also utilized to assess apoptosis and cell cycle effects. […] An important finding was that there was no difference between the enantiomers of flurbiprofen in their anti-proliferative potency, despite the fact that only the S-isomer was capable of reducing COX activity.
Further experiments similar to that discussed above with respect to FIG. 4 were conducted to assess the anti-proliferative effects of other NSAIDs on human skin cells. […] These values are similar to the IC50 vales encountered for flurbiprofen.

With CC(C(=O)O)c1ccc(-c2ccccc2)c(F)c1 (racemic) [racemic flurbiprofen, flurbiprofen] the “DP50 (time for 50% of mice within the group to develop at least one papilloma)” value ([1]; 0.5% w/v topical in 70% ethanol, UV 5 days a week) was 17 weeks, the “animals that had developed at least one tumour at the end of the study” value (shortened to “animals that had developed”) ([1]; 0.5% w/v topical) was 45% and the “skin appearance at completion of week 28 (FIG. 3c, 3d) vs vehicle animal” value ([1]; 1% and 2% treatment groups, representative animals) was “reduction in tumours and ulcers”. For the same compound, the “DP50 (time for 50% of mice within the group to develop at least one papilloma)” value ([1]; 1% w/v topical in 70% ethanol, UV 5 days a week) was 17 weeks, the “animals that had developed” value ([1]; 1.0% w/v topical) was 25% and the “DP50 (time for 50% of mice within the group to develop at least one papilloma)” value ([1]; 2% w/v topical in 70% ethanol, UV 5 days a week) was 17.5 weeks. The “animals that had developed” value ([1]; 2.0% w/v topical) was 25%, the “adverse effects in the animals” value ([1]; 3% w/v topical, initial treatment (until week 10)) was “adverse effects (such as lethargy, dehydration, and diarrhoea)” and the “DP50 (time for 50% of mice within the group to develop at least one papilloma)” value ([1]; 3-2% w/v topical (3%, then 2% from week 10)) was 18.5 weeks. The “animals that had developed” value ([1]; 3-2% w/v topical) was 10%, the “adverse effects / pathology in the animals” value ([1]; all concentrations up to and including 2% topical, 28 weeks) was “no signs of adverse effects” and the “papilloma/tumour yield (average number per animal) vs control over time (FIG. 1)” value ([1]; all treatment groups 0.5-3-2% w/v, ANOVA/Scheffe) was “statistically significant from week 13”. The “reduction in the number of animals that developed skin tumours compared with control group” value ([1]; highest concentration (3-2% w/v) vs vehicle control) was “greater than 80%”, the “protection against photo-carcinogenesis, application one hour before vs one hour after UV light” value ([1]; papilloma/tumour incidence compared between the two subgroups) was “superior protection” and the “effect on proliferation rate (FIG. 4)” value [2] was “inhibit the proliferation rate”. For the same compound, the apoptosis [2] was “induce apoptosis”.
With C[C@@H](C(=O)O)c1ccc(-c2ccccc2)c(F)c1 [R-FB, R-flurbiprofen] the “difference between the enantiomers in anti-proliferative potency” value [2] was “no difference”, the “effect on proliferation rate (FIG. 4)” value [2] was “inhibit the proliferation rate” and the apoptosis [2] was “induce apoptosis”. The COX inhibitory activity (cyclooxygenase (COX)) was “low COX inhibition”.
Compound CC(C)Cc1ccc([C@@H](C)C(=O)O)cc1 [R-ibuprofen] has an IC50 (human skin cells) of 1.49 mM.
For C[C@H](C(=O)O)c1ccc(-c2ccccc2)c(F)c1 [S-FB, S-flurbiprofen], the “difference between the enantiomers in anti-proliferative potency” value [2] was “no difference”, the “effect on proliferation rate (FIG. 4)” value [2] was “inhibit the proliferation rate” and the apoptosis [2] was “induce apoptosis”. The COX inhibitory activity (cyclooxygenase (COX)) was “can inhibit cyclooxygenase”.
In the case of CC(C)Cc1ccc([C@H](C)C(=O)O)cc1 [S-ibuprofen], the IC50 (human skin cells) is reported as 1.5 mM.
Work on CC(=O)Oc1ccccc1C(=O)O [aspirin] yielded an IC50 (human skin cells) of 0.97 to 5.53 mM.
Compound CC1=C(CC(=O)O)c2cc(F)ccc2/C1=C\c1ccc([S+](C)[O-])cc1 (stereo not shown) [sulindac] has an IC50 (human skin cells) of 1.03 to 2.16 mM.
